According to US11091494B2, “Crystal form of acalabrutinib and preparation method and use thereof” (Crystal Pharmaceutical (Suzhou) Co., Ltd., priority 2018, dated 2021):

Key:
Assay type in all cases: physicochemical
[1] = Intrinsic dissolution rate in pH 2.5 HCl/NaCl aqueous solution; settings: for Cumulative dissolution / IDR (intrinsic dissolution rate): pH 2.5 HCl/NaCl, 37° C.; for Cumulative dissolution: 0.5 cm^2 pellet; for IDR relative to that of Form I in WO2017002095A1: pH 2.5 HCl/NaCl solution; for IDR (intrinsic dissolution rate): slope over 0-45 minutes
Experimental: (§1) Approximately 200 mg of Form A and Form I in WO2017002095A1 were added into the die, compressed at 10 kN and held for 1 minute to obtain a pellet having a surface area of 0.5 cm^2. The whole tool with the pellet was transferred to a dissolution apparatus to test the intrinsic dissolution rate. The slope (mg/min) was calculated according to the data within 0-45 minutes. Intrinsic dissolution rate (IDR, mg/min/cm^2) was further calculated according to the slope.
as §1, with “Form D” for “Form A”
as §1, with “Form F” for “Form A”, “intrinsic dissolution.” for “intrinsic dissolution rate.”
as §1, with “Form G” for “Form A”, “intrinsic dissolution.” for “intrinsic dissolution rate.”
as §1, with “Form CS15” for “Form A”, “intrinsic dissolution.” for “intrinsic dissolution rate.”

[2] = Adhesiveness (amount of material sticking to the punch); settings: about 30 mg, φ8 mm round tooling, 10 kN, compression repeated twice
Experimental: (§2) Approximately 30 mg of Form A and Form I in WO2017002095A1 were weighed, added into the dies of a φ8 mm round tooling, compressed at 10 kN and held for about 30 s. The amount of material sticking to the punch was weighed. The compression was repeated twice and the cumulative amount and average amount of material sticking to the punch during the compression were recorded.
as §2, with “Form F” for “Form A”
as §2, with “Form G” for “Form A”

[3] = Flowability (compressibility index / Carr index); settings: for Flowability: by compressibility index; for Compressibility index: c=(ρf−ρ0)/ρf
Experimental: (§3) Compressibility index or Carr index is usually utilized to evaluate the flowability of powder and granules during the drug product process. Compressibility index test method is as follows: a certain amount of powder was added into a measuring cylinder and bulk volume was recorded. Then the powder was tapped to make it in the tightest state and the tapped volume was recorded. The bulk density (ρ0) and tapped density (ρf) were calculated. Compressibility index was calculated according to c=(ρf−ρ0)/ρf.
as §3, with “(ρ0),” for “(ρ0) and”, “calculated and compressibility” for “calculated. Compressibility”, “c=(pf-po)/pf.” for “c=(ρf−ρ0)/ρf.”
as §3, with “(ρ0),” for “(ρ0) and”, “calculated and compressibility” for “calculated. Compressibility”

CC#CC(=O)N1CCC[C@H]1c1nc(-c2ccc(C(=O)Nc3ccccn3)cc2)c2c(N)nccn12 [Form G, (S)-4-(8-amino-3-(1-(but-2-ynoyl)pyrrolidin-2-yl)imidazo[1,5-a]pyrazin-1-yl)-N-(pyridin-2-yl)benzamide]
Cumulative dissolution ([1]; 0 min): 0.00 mg | Cumulative dissolution ([1]; 5 min): 1.28 mg | Cumulative dissolution ([1]; 10 min): 2.36 mg | Cumulative dissolution ([1]; 15 min): 3.68 mg | Cumulative dissolution ([1]; 20 min): 4.76 mg | Cumulative dissolution ([1]; 25 min): 5.51 mg | Cumulative dissolution ([1]; 30 min): 6.71 mg | Cumulative dissolution ([1]; 35 min): 7.65 mg | Cumulative dissolution ([1]; 45 min): 9.50 mg | IDR relative to that of Form I in WO2017002095A1 [1]: 1.2 times | IDR (intrinsic dissolution rate) [1]: 0.4396 mg/min/cm^2 | Average amount (material sticking to the punch) [2]: 30 µg | Cumulative amount (material sticking to the punch) [2]: 60 µg | Bulk density (ρ0) [3]: 0.443 g/mL | Tapped density (ρf) [3]: 0.488 g/mL | Flowability [3]: Good (11-15) | Compressibility index [3]: 11%

CC#CC(=O)N1CCC[C@H]1c1nc(-c2ccc(C(=O)Nc3ccccn3)cc2)c2c(N)nccn12 [Form F, (S)-4-(8-amino-3-(1-(but-2-ynoyl)pyrrolidin-2-yl)imidazo[1,5-a]pyrazin-1-yl)-N-(pyridin-2-yl)benzamide]
Cumulative dissolution ([1]; 0 min): 0.00 mg | Cumulative dissolution ([1]; 5 min): 1.31 mg | Cumulative dissolution ([1]; 10 min): 2.47 mg | Cumulative dissolution ([1]; 15 min): 3.99 mg | Cumulative dissolution ([1]; 20 min): 5.30 mg | Cumulative dissolution ([1]; 25 min): 6.50 mg | Cumulative dissolution ([1]; 30 min): 7.26 mg | Cumulative dissolution ([1]; 35 min): 8.74 mg | Cumulative dissolution ([1]; 45 min): 10.44 mg | IDR relative to that of Form I in WO2017002095A1 [1]: 1.3 times | IDR (intrinsic dissolution rate) [1]: 0.4898 mg/min/cm^2 | Average amount (material sticking to the punch) [2]: 30 µg | Cumulative amount (material sticking to the punch) [2]: 60 µg | Bulk density (ρ0) [3]: 0.185 g/mL | Tapped density (ρf) [3]: 0.216 g/mL | Flowability [3]: Good (11-15) | Compressibility index [3]: 14%

CC#CC(=O)N1CCC[C@H]1c1nc(-c2ccc(C(=O)Nc3ccccn3)cc2)c2c(N)nccn12 [Form CS15, (S)-4-(8-amino-3-(1-(but-2-ynoyl)pyrrolidin-2-yl)imidazo[1,5-a]pyrazin-1-yl)-N-(pyridin-2-yl)benzamide]
Cumulative dissolution ([1]; 0 min): 0.00 mg | Cumulative dissolution ([1]; 5 min): 1.06 mg | Cumulative dissolution ([1]; 10 min): 2.34 mg | Cumulative dissolution ([1]; 15 min): 4.20 mg | Cumulative dissolution ([1]; 20 min): 5.60 mg | Cumulative dissolution ([1]; 25 min): 7.89 mg | Cumulative dissolution ([1]; 30 min): 8.86 mg | Cumulative dissolution ([1]; 35 min): 10.60 mg | Cumulative dissolution ([1]; 45 min): 12.41 mg | IDR relative to that of Form I in WO2017002095A1 [1]: 1.6 times | IDR (intrinsic dissolution rate) [1]: 0.5778 mg/min/cm^2

CC#CC(=O)N1CCC[C@H]1c1nc(-c2ccc(C(=O)Nc3ccccn3)cc2)c2c(N)nccn12 [Form A, (S)-4-(8-amino-3-(1-(but-2-ynoyl)pyrrolidin-2-yl)imidazo[1,5-a]pyrazin-1-yl)-N-(pyridin-2-yl)benzamide]
Cumulative dissolution ([1]; 0 min): 0.00 mg | Cumulative dissolution ([1]; 5 min): 1.13 mg | Cumulative dissolution ([1]; 10 min): 2.42 mg | Cumulative dissolution ([1]; 15 min): 3.80 mg | Cumulative dissolution ([1]; 20 min): 4.73 mg | Cumulative dissolution ([1]; 25 min): 5.79 mg | Cumulative dissolution ([1]; 30 min): 6.72 mg | Cumulative dissolution ([1]; 35 min): 7.83 mg | Cumulative dissolution ([1]; 45 min): 9.93 mg | IDR relative to that of Form I in WO2017002095A1 [1]: 1.2 times | IDR (intrinsic dissolution rate) [1]: 0.4520 mg/min/cm^2 | Average amount (material sticking to the punch) [2]: 40 µg | Cumulative amount (material sticking to the punch) [2]: 80 µg | Bulk density (ρ0) [3]: 0.269 g/mL | Tapped density (ρf) [3]: 0.303 g/mL | Flowability [3]: Good (11-15) | Compressibility index [3]: 11%
